Test systems include EKVX NSCLC; HCC-2998 colon; HCT-116 colon; HCT-15 colon; LOX IMVI melanoma; SNB-78 CNS; UACC-62 melanoma; BT-549 breast; K-562 leukemia; M14 melanoma; MCF7 breast; OVCAR-4 ovarian.
Holding throughout (experiment): NCI tumour cell line growth inhibition, 48 h

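Growth conditions: 96-well plates. Treatment: test compound, 48 hours, 5 concentrations. Analysis: linear interpolation between bracketing concentrations; unreached endpoints set to highest concentration. TGI is the concentration that stops growth completely.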

For the molecule `Nc1nc2c(ncn2CCOC(c2ccccc2)P(=O)(O)O)c(=O)[nH]1` (stereo unspecified), the TGI with EKVX NSCLC, in the assay on HCC-2998 colon, in the assay with HCT-116 colon, in the assay with HCT-15 colon, in the assay on LOX IMVI melanoma and with SNB-78 CNS was > 100 µM in each case. For the same molecule, the TGI with UACC-62 melanoma was > 100 µM.

Take `CCC(=O)OCc1ccc2oc(=O)c(C(=O)Oc3cncc(Cl)c3)cc2c1`: the TGI was > 100 µM with BT-549 breast; > 100 µM in the assay on EKVX NSCLC; > 100 µM with HCC-2998 colon; > 100 µM in the assay on HCT-116 colon; > 100 µM in the assay on HCT-15 colon; 77.9 µM with K-562 leukemia. The TGI in the assay with LOX IMVI melanoma, in the assay on M14 melanoma, in the assay on MCF7 breast, in the assay on OVCAR-4 ovarian and in the assay on UACC-62 melanoma was > 100 µM in each case.

With `CCOC(=O)CCC(NC(=O)c1ccc(CNc2nc3cc(N)cc(N)c3nc2-c2ccccc2)cc1)C(=O)OCC` (stereo unspecified), the TGI with BT-549 breast, in the assay with EKVX NSCLC, in the assay on HCC-2998 colon, in the assay on HCT-116 colon, with HCT-15 colon and in the assay on K-562 leukemia was > 100 µM each time. The TGI was > 100 µM in the assay with LOX IMVI melanoma; > 61.6 µM in the assay with M14 melanoma; > 100 µM in the assay on MCF7 breast; 42 µM with OVCAR-4 ovarian; > 100 µM with UACC-62 melanoma.

As for `Cn1c(N2CCCC2)c(C=O)c(=O)n(C)c1=O`, the TGI in the assay with BT-549 breast, in the assay with EKVX NSCLC, with HCC-2998 colon, in the assay with HCT-116 colon, in the assay with HCT-15 colon and in the assay on K-562 leukemia was > 100 µM each time. Further, the TGI with LOX IMVI melanoma, in the assay with M14 melanoma, with MCF7 breast, in the assay on OVCAR-4 ovarian and in the assay on UACC-62 melanoma was > 100 µM each time.

`O=C(CCCCCCCCC(=O)NN1C(=O)/C(=C\c2ccc(O)c(O)c2)SC1c1c(O)ccc2ccccc12)NN1C(=O)C(=Cc2ccc(O)c(O)c2)SC1c1c(O)ccc2ccccc12` (stereo unspecified): the TGI in the assay with BT-549 breast was > 100 µM; in the assay on EKVX NSCLC it was > 100 µM; in the assay with HCC-2998 colon, > 100 µM; with HCT-116 colon it was > 100 µM; in the assay with HCT-15 colon it was > 100 µM; in the assay on K-562 leukemia it was > 60.8 µM. In addition, the TGI in the assay with LOX IMVI melanoma is 13 µM; in the assay with M14 melanoma, > 48.5 µM; in the assay on MCF7 breast it was > 100 µM; with OVCAR-4 ovarian, > 100 µM; in the assay with UACC-62 melanoma, 45.6 µM.

On to `CC1(C)OCC2OC3([C@H](O)CCO)OC(C)(C)OC3C2O1` (stereo partly specified), for which the TGI in the assay on BT-549 breast, with EKVX NSCLC, in the assay on HCC-2998 colon, with HCT-116 colon, in the assay on HCT-15 colon and in the assay on K-562 leukemia was > 100 µM in each case. For the same molecule, the TGI in the assay with LOX IMVI melanoma, with M14 melanoma, in the assay on MCF7 breast, in the assay on OVCAR-4 ovarian and with UACC-62 melanoma was > 100 µM throughout.

As for `Oc1ccc2c(c1)OCC(O)(c1ccccc1O)C2` (stereo unspecified), the TGI with BT-549 breast, with EKVX NSCLC, with HCC-2998 colon, in the assay on HCT-116 colon, in the assay on HCT-15 colon and in the assay with K-562 leukemia was > 100 µM throughout. Further, the TGI with LOX IMVI melanoma, with M14 melanoma, in the assay with MCF7 breast, with OVCAR-4 ovarian and with UACC-62 melanoma was > 100 µM each time.

For the molecule `CC1=C(C(=O)OCCO[N+](=O)[O-])C(c2ccccc2C(F)(F)F)C(C(=O)OC(C)C)=C(C)N1` (stereo unspecified), the TGI in the assay on BT-549 breast is 26.9 µM; in the assay on EKVX NSCLC, 97.9 µM; with HCC-2998 colon, > 100 µM; in the assay on HCT-116 colon it was 29.1 µM; in the assay on HCT-15 colon, 60.6 µM; in the assay on K-562 leukemia it was > 100 µM. In addition, the TGI amounted to 27.3 µM with LOX IMVI melanoma; 31.4 µM with M14 melanoma; 75.1 µM with MCF7 breast; 93.4 µM in the assay on OVCAR-4 ovarian; 80.2 µM in the assay on UACC-62 melanoma.

As for `O=C(O)c1c(-c2c3ccc(=O)cc-3oc3cc(O)ccc23)cc2ccccc2c1-c1ccccc1`, the TGI in the assay on BT-549 breast was > 100 µM; in the assay on EKVX NSCLC, > 100 µM; in the assay on HCC-2998 colon it was > 68.4 µM; in the assay on HCT-116 colon, > 100 µM; in the assay with HCT-15 colon it was > 100 µM; with K-562 leukemia, > 46.4 µM. Moreover, the TGI in the assay with LOX IMVI melanoma, in the assay with M14 melanoma, in the assay with MCF7 breast, in the assay on OVCAR-4 ovarian and with UACC-62 melanoma was > 100 µM throughout.

As for `Cn1c(-c2csc(-c3ccc(Cl)cc3)n2)n[nH]c1=S`, the TGI in the assay on BT-549 breast is 55.8 µM; with EKVX NSCLC it was > 100 µM; in the assay with HCC-2998 colon, > 100 µM; in the assay on HCT-116 colon, 40.9 µM; in the assay on HCT-15 colon it was > 100 µM; in the assay with K-562 leukemia, > 100 µM. Also, the TGI in the assay on LOX IMVI melanoma was 73 µM; with M14 melanoma, > 100 µM; in the assay on MCF7 breast, > 100 µM; with OVCAR-4 ovarian it was 50.9 µM; in the assay with UACC-62 melanoma it was 46.6 µM.

The record behind these values is PubChem BioAssay (NCI).
